Results on 1 compound are retold here after patent US20090133166A1, “Methods for Improving Flowering Characteristics Using Methyl Dihydrojasmonate” (NEW BIOLOGY, INC., priority 2007, published 2009).

Experiment [1] relates to field grown ‘Julia Child’ roses. Put plainly: Vase life / bloom stage of cut field grown roses after pre-harvest foliar treatment. Type of experiment: in vivo. Also noted: key to Bloom Stage Day 1 / Bloom Stage Day 3: a: Green Bud; b: Full Bud; c: Flower in early bloom stage; d: Flower in fully open stage; Flower in late bloom stage; Fully wilted flower; Flower drooped before fully opening. Here is the method: Foliage of field grown ‘Julia Child’ roses were sprayed to the point of drip 24 hours before harvesting with an aqueous solution comprising 5.0 mM MDHJ, 0.125% Triton® X-100, and 0.5% canola oil. On average, about 100 ml of the formulation was applied per plant, comprising an approximate volume of 130 μl (or 500 μM) MDHJ. Stems of flowers in the bud to early-bloom stage were cut in the field. Stems received a fresh cut while submerged under water before transferring to a water-filled vase. The bloom stage of 4-5 flowers was analyzed on day 1 and day 3, as compared with untreated roses that were otherwise similarly handled. FIG. 1 illustrates the full vases of flowers for the treated and untreated roses on day 1 and day 3, respectively. FIG. 2 illustrates individual roses on day 1 and day 3.

The subject of experiment [2] is Parade Roses®. Put plainly: Flower development on intact flowering rose plants after foliar treatment. Also noted: key to Bloom Stage Day 1 / Bloom Stage Day 12: 1: Early bloom; 2: Fully Open; 3: Wilted. It counts as in vivo. The method, then: Parade Roses® with flowers in the bud to early bloom stage were treated to the point of drip on day 1 and day 2 with an aqueous solution comprising either (1) 0.125% Triton® X-100 and 0.5% canola oil as a control treatment; or (2) 1.5 mM MDHJ, 0.125% Triton® X-100, and 0.5% canola oil. There were four plants per treatment. Approximately 10 ml of each treatment was applied to each plant, comprising approximately 3.9 μL (15 μM MDHJ). Rate of flower development of individual flowers was monitored and compared between treatments. On day 1 and day 12, individual flowers were rated according to their stage of blooming. FIG. 3 is a photographic comparison of treated and untreated plants at day 1 and day 12.

Setting [3] is: plants treated before harvesting, vs untreated.

Each structure is given as a SMILES string. Several values for one entry are separate records, joined by “and”; a condition that tells them apart may be missing. Identical values can stand only once.

As to `CCCCCC1C(=O)CCC1CC(=O)OC` (stereo not shown) [MDHJ, methyl dihydrojasmonate], the “Bloom Stage Day 1” value in experiment [1] (individual cut flowers, day 1, foliage sprayed 24 hours before harvesting with 5.0 mM MDHJ, 0.125% Triton X-100, 0.5% canola oil, listed as Treated) was “d and c and b (2×)”. Also, the “Bloom Stage Day 3” value in experiment [1] (individual cut flowers, day 3, foliage sprayed 24 hours before harvesting with 5.0 mM MDHJ, 0.125% Triton X-100, 0.5% canola oil) is reported as “d”. In addition, the “Ability of buds to open fully into flowers” value in experiment [1] (plants treated before harvesting buds and early flowers, vs untreated) is on record as “improving the ability of the buds to open fully into flowers”. Further, in experiment [1] (setting [3]), the “Bent neck of stems” value is given as “prevents stems from exhibiting bent neck” and the Flower wilting result is reported as “delays flower wilting”. Moreover, the “Average Bloom Stage Day 1” value in experiment [2] (average of 8 flowers, day 1, scale 1 early bloom, 2 fully open, 3 wilted, 1.5 mM MDHJ formulation) is 1.4. Also, the “Average Bloom Stage Day 12” value in experiment [2] (average of 8 flowers, day 12, scale 1 early bloom, 2 fully open, 3 wilted, 1.5 mM MDHJ formulation) was 1.4. Besides, in experiment [2] (formulation containing MDHJ vs control formulation without MDHJ), the “Flower development on intact plants” value is given as “prolonged flower development”. Moreover, in experiment [2] (individual flowers on intact plants, day 1, 1.5 mM MDHJ, 0.125% Triton X-100, 0.5% canola oil applied day 1 and day 2, listed as Treatment 2), the “Bloom Stage Day 1” value was 2 (3×) and 1 (5×). Besides, in experiment [2] (individual flowers on intact plants, day 12, 1.5 mM MDHJ, 0.125% Triton X-100, 0.5% canola oil applied day 1 and day 2, listed as Treatment 2), the “Bloom Stage Day 12” value was 2 (3×) and 1 (5×).
